Read-outs that look alike come from different tables or passages of the source.
Assays:
[1] = system: T cell proliferation in mouse spleen cell mixed lymphocyte cultures; assay: Mixed Lymphocyte Reaction (MLR) assay; assay type: cell-based, mouse (Balb/c responder, C57B1/6 stimulator); settings: for inhibition at 3 µM / inhibition at 10 µM / inhibition at 30 µM / inhibition at 100 µM / inhibition at 300 µM: Mus musculus, Lymphocyte, read-out: % Change From Control, MLR
Description: The pharmacologic assays performed to determine the immunomodulatory effects of the experimental compounds in vitro include the Mixed Lymphocyte Reaction (MLR) and the ConA blastogenesis assay. These assays were used to determine the inhibitory effects of the compounds of the invention on T lymphocyte activation and proliferation. Since inflammation at the cellular level is characterized by T lymphocyte recruitment, activation and proliferation, these assays are appropriate to use as screens for novel compounds having therapeutic potential in the treatment of disorders in which inflammatory mechanisms are involved.
The MLR is a classical assay used to measure T cell function by studying the proliferative response of T cells which are activated in vitro by genetically disparate stimulator cells. This is accomplished by co-culturing spleen cells from two different strains of mice. Splenic T cell proliferation occurs as a result of cellular activation signals generated by the ongoing cellular interactions.
Balb/c mice were euthanised by cervical dislocation and their spleens removed. Single cell suspensions of the spleens were prepared in culture medium (hepes buffered RPMI-1640 supplemented with 10% fetal calf serum, 2mM glutamine, 500 units penicillin/ streptomycin, and 4×10^-5 M 2-mercaptoethanol) using a Teflon pestle. The cells were centrifuged at 1500 rpm and the pellets resuspended in ACT (0.15M tris, 0.14M ammonium chloride, pH 7.2) in order to lyse the red blood cells. After a 5 minute incubation in a 37 C. waterbath, the cells were resuspended in culture medium and counted. C57B1/6 spleen cells which were used as stimulator cells, were also prepared by this method. The stimulator cells were treated with 100 ug/ml of mitomycin c for 1 hour at 37 C. (to inhibit stimulatory cell proliferation) and were then washed 5 times in culture medium. The proliferative responses were measured by culturing 2.5×10^5 responder cells with 5×10^5 stimulatory cells in 96 well microtiter plates in the presence or absence of various doses of test compounds or vehicle (DMSO). Syngeneic control cultures using mitomycin c treated Balb/c spleen cells as stimulator cells were also run. All cultures were run in triplicate.
Solutions of compounds of the present invention in DMSO were prepared at a stock concentration of 120 Mm. Dilutions were made in culture medium to the following concentrations: 3, 10, 30, 100, and 300 uM. The vehicle (DMSO) was used as a negative control.
After incubation of for 5 days at 37 C. with 5% CO2, the amount of cell proliferation was measured by adding 20 ul of MTT (3-[4,5-dimethylthiazol-2-yl]-2,5diphenyl-tetrazolium bromide) (10 mg/ml in phosphate buffered saline) to each well. Plates were incubated for 4 hours at 37 C., after which 180 ul of 10% sodium dodecyl sulphate in phosphate buffered saline was added. After an overnight incubation, the optical density (OD) of each well was read on a Molecular Devices microplate reader at 570-650 nm. The results were determined by calculating the difference between the means of the allogeneic cultures and the means of the syngenic cultures for each test article concentration. Differences of the test article groups were compared to the control group and the percent change from the control was determined.

[2] = system: T lymphocytes (normal mouse spleen cells) stimulated with ConA; assay: Mouse Spleen Cell ConA Blastogenesis Assay; assay type: cell-based, mouse (C57Bl/6); settings: for inhibition at 0.001 µg/mL / inhibition at 0.01 µg/mL / inhibition at 0.1 µg/mL / inhibition at 1 µg/mL / inhibition at 2.5 µg/mL / inhibition at 10 µg/mL / inhibition at 25 µg/mL / inhibition at 100 µg/mL: Mus musculus, T-lymphocyte
[3] = ConA 1 ug/ml, compound 0.01 ug/ml, read-out: % change from control, ConA blastogenic response
[4] = ConA 1 ug/ml, compound 0.1 ug/ml, read-out: % change from control, ConA blastogenic response
[5] = ConA 1 ug/ml, compound 1 ug/ml, read-out: % change from control, ConA blastogenic response
[6] = ConA 1 ug/ml, compound 2.5 ug/ml, read-out: % change from control, ConA blastogenic response
[7] = ConA 1 ug/ml, compound 10 ug/ml, read-out: % change from control, ConA blastogenic response
[8] = ConA 1 ug/ml, compound 25 ug/ml, read-out: % change from control, ConA blastogenic response
[9] = ConA 1 ug/ml, compound 100 ug/ml, read-out: % change from control, ConA blastogenic response
[10] = ConA 4 ug/ml, compound 0.01 ug/ml, read-out: % change from control, ConA blastogenic response
[11] = ConA 4 ug/ml, compound 0.1 ug/ml, read-out: % change from control, ConA blastogenic response
[12] = ConA 4 ug/ml, compound 1 ug/ml, read-out: % change from control, ConA blastogenic response
[13] = ConA 4 ug/ml, compound 2.5 ug/ml, read-out: % change from control, ConA blastogenic response
[14] = ConA 4 ug/ml, compound 10 ug/ml, read-out: % change from control, ConA blastogenic response
[15] = ConA 4 ug/ml, compound 25 ug/ml, read-out: % change from control, ConA blastogenic response
[16] = ConA 4 ug/ml, compound 100 ug/ml, read-out: % change from control, ConA blastogenic response

CCCCCCCOC[C@H]1O[C@@]2(OC)COC(C)(C)O[C@H]2[C@@H]1O [Ia, methyl 1,3-O-isopropylidene-6-O-heptyl-α-D-fructofuranoside]
Mean O.D. Allogenic ([1]; 3 um): 0.375 O.D. | Mean O.D. Syngeneic ([1]; 3 um): 0.193 O.D. | Mean O.D. Allogenic ([1]; 10 um): 0.361 O.D. | Mean O.D. Syngeneic ([1]; 10 um): 0.175 O.D. | Mean O.D. Allogenic ([1]; 30 um): 0.334 O.D. | Mean O.D. Syngeneic ([1]; 30 um): 0.167 O.D. | Mean O.D. Allogenic ([1]; 100 um): 0.429 O.D. | Mean O.D. Syngeneic ([1]; 100 um): 0.192 O.D. | Mean O.D. Allogenic ([1]; 300 um): 0.162 O.D. | Mean O.D. Syngeneic ([1]; 300 um): 0.107 O.D. | inhibition at 3 µM ([1]; 3 um): 5% | inhibition at 10 µM ([1]; 10 um): 3% | inhibition at 30 µM ([1]; 30 um): 13% | inhibition at 100 µM ([1]; 100 um): -23% | inhibition at 300 µM ([1]; 300 um): 71% | effect on ConA T lymphocyte proliferation in words [2]: dose-dependent, significant, inhibitory effect | Blastogenic response of normal spleen cells to Con-A ([2]; ConA 1 ug/ml, compound 0.001 ug/ml): 52.6 ± 3.8 × 10^-3 cpm | Blastogenic response of normal spleen cells to Con-A ([2]; ConA 1 ug/ml, compound 0.01 ug/ml): 45.1 ± 4.9 × 10^-3 cpm | Blastogenic response of normal spleen cells to Con-A ([2]; ConA 1 ug/ml, compound 0.1 ug/ml): 71.1 ± 4.9 × 10^-3 cpm | Blastogenic response of normal spleen cells to Con-A ([2]; ConA 1 ug/ml, compound 1 ug/ml): 55.7 ± 8.4 × 10^-3 cpm | Blastogenic response of normal spleen cells to Con-A ([2]; ConA 1 ug/ml, compound 2.5 ug/ml): 47.2 ± 7.0 × 10^-3 cpm | Blastogenic response of normal spleen cells to Con-A ([2]; ConA 1 ug/ml, compound 10 ug/ml): 26.5 ± 8.8 × 10^-3 cpm | Blastogenic response of normal spleen cells to Con-A ([2]; ConA 1 ug/ml, compound 25 ug/ml): 1.5 ± 0.4 × 10^-3 cpm | Blastogenic response of normal spleen cells to Con-A ([2]; ConA 1 ug/ml, compound 100 ug/ml): 0.6 ± 0.1 × 10^-3 cpm | Blastogenic response of normal spleen cells to Con-A ([2]; ConA 4 ug/ml, compound 0.001 ug/ml): 68.7 ± 5.0 × 10^-3 cpm | Blastogenic response of normal spleen cells to Con-A ([2]; ConA 4 ug/ml, compound 0.01 ug/ml): 72.8 ± 0.8 × 10^-3 cpm | Blastogenic response of normal spleen cells to Con-A ([2]; ConA 4 ug/ml, compound 0.1 ug/ml): 88.8 ± 2.4 × 10^-3 cpm | Blastogenic response of normal spleen cells to Con-A ([2]; ConA 4 ug/ml, compound 1 ug/ml): 77.0 ± 4.2 × 10^-3 cpm | Blastogenic response of normal spleen cells to Con-A ([2]; ConA 4 ug/ml, compound 2.5 ug/ml): 63.8 ± 2.3 × 10^-3 cpm | Blastogenic response of normal spleen cells to Con-A ([2]; ConA 4 ug/ml, compound 10 ug/ml): 50.2 ± 3.4 × 10^-3 cpm | Blastogenic response of normal spleen cells to Con-A ([2]; ConA 4 ug/ml, compound 25 ug/ml): 13.7 ± 2.0 × 10^-3 cpm | Blastogenic response of normal spleen cells to Con-A ([2]; ConA 4 ug/ml, compound 100 ug/ml): 6.3 ± 2.2 × 10^-3 cpm | inhibition at 0.001 µg/mL ([2]; ConA 1 ug/ml, compound 0.001 ug/ml, read-out: % change from control, ConA blastogenic response): 5% | inhibition at 0.01 µg/mL [2, 3]: 19% | inhibition at 0.1 µg/mL [2, 4]: -28% | inhibition at 1 µg/mL [2, 5]: -1% | inhibition at 2.5 µg/mL [2, 6]: 15% | inhibition at 10 µg/mL [2, 7]: 52% | inhibition at 25 µg/mL [2, 8]: 97% | inhibition at 100 µg/mL [2, 9]: 99% | inhibition at 0.001 µg/mL ([2]; ConA 4 ug/ml, compound 0.001 ug/ml, read-out: % change from control, ConA blastogenic response): 19% | inhibition at 0.01 µg/mL [2, 10]: 14% | inhibition at 0.1 µg/mL [2, 11]: -5% | inhibition at 1 µg/mL [2, 12]: 9% | inhibition at 2.5 µg/mL [2, 13]: 25% | inhibition at 10 µg/mL [2, 14]: 41% | inhibition at 25 µg/mL [2, 15]: 84% | inhibition at 100 µg/mL [2, 16]: 93%

CCCCC/C=C/COC[C@H]1O[C@@]2(OC)COC(C)(C)O[C@H]2[C@@H]1OC/C=C/CCCCC [Ie, methyl 1,3-O-isopropylidene-4,6-di-O-(trans,2-octenyl)-α-D-fructofuranoside]
Mean O.D. Allogenic ([1]; 3 um): 0.341 O.D. | Mean O.D. Syngeneic ([1]; 3 um): 0.133 O.D. | Mean O.D. Allogenic ([1]; 10 um): 0.318 O.D. | Mean O.D. Syngeneic ([1]; 10 um): 0.130 O.D. | Mean O.D. Allogenic ([1]; 30 um): 0.266 O.D. | Mean O.D. Syngeneic ([1]; 30 um): 0.178 O.D. | Mean O.D. Allogenic ([1]; 100 um): 0.216 O.D. | Mean O.D. Syngeneic ([1]; 100 um): 0.146 O.D. | Mean O.D. Allogenic ([1]; 300 um): 0.152 O.D. | Mean O.D. Syngeneic ([1]; 300 um): 0.082 O.D. | inhibition at 3 µM ([1]; 3 um): -8% | inhibition at 10 µM ([1]; 10 um): 2% | inhibition at 30 µM ([1]; 30 um): 54% | inhibition at 100 µM ([1]; 100 um): 64% | inhibition at 300 µM ([1]; 300 um): 64% | inhibition at 0.01 µg/mL ([2]; ConA 1 ug/ml, 0.01 ug/ml, read-out: % Change from Control (Table II)): 2% | inhibition at 0.01 µg/mL [2, 3]: 22% | inhibition at 0.1 µg/mL [2, 4]: 18% | inhibition at 1 µg/mL [2, 5]: 34% | inhibition at 2.5 µg/mL [2, 6]: 72% | inhibition at 10 µg/mL [2, 7]: 91% | inhibition at 25 µg/mL [2, 8]: 99% | inhibition at 100 µg/mL [2, 9]: 100% | inhibition at 0.01 µg/mL ([2]; ConA 4 ug/ml, 0.01 ug/ml, read-out: % Change from Control (Table II)): 8% | inhibition at 0.01 µg/mL [2, 10]: 4% | inhibition at 0.1 µg/mL [2, 11]: 9% | inhibition at 1 µg/mL [2, 12]: 59% | inhibition at 2.5 µg/mL [2, 13]: 79% | inhibition at 10 µg/mL [2, 14]: 92% | inhibition at 25 µg/mL [2, 15]: 99% | inhibition at 100 µg/mL [2, 16]: 100%
